Test results: ChEMBL document CHEMBL5360533, “Targeting ecto-5'-nucleotidase: A comprehensive review into small molecule inhibitors and expression modulators” (Eur J Med Chem, 2023)
One block for each molecule: values may come before it.

Assays:
[1] = target: T1, Alkaline phosphatase, tissue-nonspecific isozyme (Homo sapiens, UniProt P05186); assay: Inhibition of human TNAP
T1 sequence (P05186 whole entry): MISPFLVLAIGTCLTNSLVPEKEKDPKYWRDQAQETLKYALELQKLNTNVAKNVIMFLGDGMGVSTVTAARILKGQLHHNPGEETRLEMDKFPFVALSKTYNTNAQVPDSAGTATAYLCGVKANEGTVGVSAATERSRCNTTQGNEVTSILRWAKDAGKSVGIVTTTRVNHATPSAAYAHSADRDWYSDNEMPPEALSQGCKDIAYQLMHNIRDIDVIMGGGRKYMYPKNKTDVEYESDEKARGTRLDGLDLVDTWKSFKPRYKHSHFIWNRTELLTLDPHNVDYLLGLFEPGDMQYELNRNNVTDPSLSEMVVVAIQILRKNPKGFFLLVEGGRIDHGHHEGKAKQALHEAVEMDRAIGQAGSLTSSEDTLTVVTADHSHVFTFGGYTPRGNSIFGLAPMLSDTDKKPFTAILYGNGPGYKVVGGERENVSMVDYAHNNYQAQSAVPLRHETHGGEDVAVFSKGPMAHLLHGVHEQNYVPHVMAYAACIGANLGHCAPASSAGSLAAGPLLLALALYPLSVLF

5'-nucleotidase [2] = target: T2, 5'-nucleotidase (Mus musculus, UniProt Q61503); assay: Inhibition of mouse Ecto-5'-nucleotidase
T2 sequence (Q61503 whole entry): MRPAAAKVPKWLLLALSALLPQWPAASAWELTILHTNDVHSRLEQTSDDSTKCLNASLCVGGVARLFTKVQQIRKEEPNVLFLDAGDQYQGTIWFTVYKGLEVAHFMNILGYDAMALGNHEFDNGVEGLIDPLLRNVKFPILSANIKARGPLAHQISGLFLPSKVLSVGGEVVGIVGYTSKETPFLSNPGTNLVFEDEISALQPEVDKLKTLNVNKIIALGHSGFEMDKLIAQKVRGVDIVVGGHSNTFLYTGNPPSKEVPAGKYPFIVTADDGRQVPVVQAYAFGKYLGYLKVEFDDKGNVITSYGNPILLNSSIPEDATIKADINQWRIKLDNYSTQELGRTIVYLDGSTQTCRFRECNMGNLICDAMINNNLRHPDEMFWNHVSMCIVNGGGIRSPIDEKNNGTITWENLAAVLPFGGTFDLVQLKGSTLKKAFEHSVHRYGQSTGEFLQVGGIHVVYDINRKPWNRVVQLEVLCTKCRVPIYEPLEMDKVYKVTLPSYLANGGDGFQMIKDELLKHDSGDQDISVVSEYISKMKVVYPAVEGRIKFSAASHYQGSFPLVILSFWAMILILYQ

5'-nucleotidase [3] = target: T3, 5'-nucleotidase (Homo sapiens, UniProt P21589); assay: Inhibition of human recombinant Ecto-5'-nucleotidase
T3 sequence (P21589 whole entry): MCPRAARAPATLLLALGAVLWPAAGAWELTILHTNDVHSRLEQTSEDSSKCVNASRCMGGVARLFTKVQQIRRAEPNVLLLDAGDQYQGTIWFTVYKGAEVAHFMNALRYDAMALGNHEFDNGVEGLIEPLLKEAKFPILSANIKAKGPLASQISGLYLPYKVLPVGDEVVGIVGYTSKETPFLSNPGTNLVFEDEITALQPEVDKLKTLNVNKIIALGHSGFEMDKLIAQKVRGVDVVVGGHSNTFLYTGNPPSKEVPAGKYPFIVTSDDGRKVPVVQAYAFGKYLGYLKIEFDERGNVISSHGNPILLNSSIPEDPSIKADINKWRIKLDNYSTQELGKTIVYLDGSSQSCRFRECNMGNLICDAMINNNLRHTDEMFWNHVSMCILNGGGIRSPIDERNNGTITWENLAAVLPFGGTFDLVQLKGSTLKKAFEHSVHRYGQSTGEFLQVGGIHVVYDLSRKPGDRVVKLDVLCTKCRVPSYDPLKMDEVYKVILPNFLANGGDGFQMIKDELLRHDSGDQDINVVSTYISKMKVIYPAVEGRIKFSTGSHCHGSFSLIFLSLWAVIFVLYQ

HeLa [4] = assay: Cytotoxicity against human HeLa cells; assay type: functional, cell-based
5'-nucleotidase [5] = target: T3, 5'-nucleotidase; assay: Inhibition of human N-terminal Ecto-5'-nucleotidase
5'-nucleotidase [6] = target: T4, 5'-nucleotidase (Rattus norvegicus, UniProt P21588); assay: Inhibition of rat Ecto-5'-nucleotidase
T4 sequence (P21588 whole entry): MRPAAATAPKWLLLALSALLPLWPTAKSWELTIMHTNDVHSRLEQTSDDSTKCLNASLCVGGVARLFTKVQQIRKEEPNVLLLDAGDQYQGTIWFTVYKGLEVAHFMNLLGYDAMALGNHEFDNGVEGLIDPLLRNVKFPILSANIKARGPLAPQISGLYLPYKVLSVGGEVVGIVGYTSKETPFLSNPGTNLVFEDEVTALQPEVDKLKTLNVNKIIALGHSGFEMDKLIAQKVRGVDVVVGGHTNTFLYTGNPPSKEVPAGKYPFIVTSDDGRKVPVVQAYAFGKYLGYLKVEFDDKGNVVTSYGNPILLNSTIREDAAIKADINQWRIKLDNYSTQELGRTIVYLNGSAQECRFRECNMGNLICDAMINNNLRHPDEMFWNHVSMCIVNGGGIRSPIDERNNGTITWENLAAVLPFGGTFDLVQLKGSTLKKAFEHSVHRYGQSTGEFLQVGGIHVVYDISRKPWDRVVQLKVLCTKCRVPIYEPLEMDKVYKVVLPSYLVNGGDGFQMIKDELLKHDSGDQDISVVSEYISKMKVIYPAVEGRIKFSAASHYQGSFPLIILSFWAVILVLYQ

HeLa [7] = assay: Cytotoxicity against human HeLa cells assessed as inhibition of cell viability at 100 uM measured after 24 hrs by MTT assay; assay type: functional
[8] = Cytotoxicity against hamster BHK-21 cells assessed as inhibition of cell viability at 100 uM measured after 24 hrs by MTT assay; assay type: toxicity, cell-based, Mesocricetus auratus; settings: read-out: INH
5'-nucleotidase [9] = target: T3, 5'-nucleotidase; assay: Inhibition of human recombinant CD73
5'-nucleotidase [10] = target: T3, 5'-nucleotidase; assay: Binding affinity to human recombinant Ecto-5'-nucleotidase assessed as inhibition constant
5'-nucleotidase [11] = target: T3, 5'-nucleotidase; assay: Inhibition of recombinant CD73 (unknown origin)
5'-nucleotidase [12] = target: T3, 5'-nucleotidase; assay: Inhibition of N-terminal human Ecto-5'-nucleotidase at 250 uM relative to control
Trichomonas vaginalis = assay: Antiprotozoal activity against Trichomonas vaginalis ATCC 30236 assessed as parasitic growth inhibition measured after 24 hrs by cytometry analysis; assay type: functional, organism-based; settings: ATCC 30236, 24 h
5'-nucleotidase [13] = target: T3, 5'-nucleotidase; assay: Inhibition of human recombinant CD73 in mouse 4T1 cells at 12.5 ug/ml incubated for 24 hrs by Western blot analysis relative to control; assay type: cell-based; settings: dose 12.5 µg/ml
5'-nucleotidase [14] = target: T3, 5'-nucleotidase; assay: Inhibition of human recombinant CD73 in MDA-MB-231 cells at 12.5 ug/ml incubated for 24 hrs by Western blot analysis relative to control; assay type: cell-based; settings: dose 12.5 µg/ml
5'-nucleotidase [15] = target: T3, 5'-nucleotidase; assay: Inhibition of human CD73
5'-nucleotidase [16] = target: T3, 5'-nucleotidase; assay: Inhibition of human CD73 expressed in A-375 cells; assay type: cell-based
5'-nucleotidase [17] = target: T3, 5'-nucleotidase; assay: Inhibition of human Ecto-5'-nucleotidase in rat C6 cells at 100 uM relative to control; assay type: cell-based
5'-nucleotidase [18] = target: T3, 5'-nucleotidase; assay: Inhibition of human Ecto-5'-nucleotidase in rat C6 cells at 200 uM relative to control; assay type: cell-based

- IC50 [1]: 250 nM
Structure (SMILES): O=c1oc2ccccc2cc1-c1csc(/N=C/c2cccc([N+](=O)[O-])c2)n1

- IC50 (5'-nucleotidase [2]): 230 nM
Structure (SMILES): O=C(N/N=C/c1ccc(Br)cc1)c1ccccc1

- IC50 (5'-nucleotidase [2]): 13800 nM
Structure (SMILES): COc1ccc(/C=N/NC(=O)c2ccccc2)cc1

- IC50 (5'-nucleotidase [3]): 290 nM
Structure (SMILES): C/C(=N\NS(=O)(=O)c1ccccc1)c1cc2ccccc2oc1=O

- IC50 (5'-nucleotidase [5]): 25800 nM
- IC50 (5'-nucleotidase [6]): 640 nM
Structure (SMILES): Cc1nn(-c2ccccc2)c2nc(-c3ccccc3O)ccc12

- Ki (5'-nucleotidase [10]): 530 nM
Structure (SMILES): Cc1ccc(C(=O)N2CCc3cc(-c4nc(NC(=O)CN5CCc6ccccc6C5)sc4C)ccc32)cc1

- IC50 (5'-nucleotidase [11]): 4800 nM
Structure (SMILES): O=P(O)(O)CP(=O)(O)C[C@@H](O)[C@H]1O[C@@H](n2cc(-c3cc(C(F)(F)F)cc(C(F)(F)F)c3)nn2)[C@H](O)[C@@H]1O

- IC50 (5'-nucleotidase [9]): 19000 nM
Structure (SMILES): Nc1ncnc2c1ncn2[C@@H]1O[C@H](COC(C(=O)O)P(=O)(O)O)[C@@H](O)[C@H]1O (stereo not given in full)

- IC50 (5'-nucleotidase [5]): 320 nM
Structure (SMILES): CC(=O)c1sc(N/N=C/c2cc3ccccc3[nH]2)nc1C

- IC50 (5'-nucleotidase [5]): 45800 nM
Structure (SMILES): COc1ccc(CN(C)C(=O)Nc2sc3c(c2C(=O)OC(C)(C)C)CCN(Cc2ccccc2)C3)cc1OC

- IC50 (5'-nucleotidase [3]): 4660 nM
Structure (SMILES): CC(=O)c1cc2ccccc2oc1=O [3-ACETYLCOUMARIN]

- IC50 (5'-nucleotidase [2]): 680 nM
Structure (SMILES): COc1cc(/C=N/NC(=O)c2ccccc2)ccc1O

- IC50 (5'-nucleotidase [3]): 6200 nM
Structure (SMILES): O=C(CSc1nnc(-c2c[nH]c3ccccc23)n1Cc1ccccc1)NO

- IC50 (5'-nucleotidase [5]): 1780 nM
Structure (SMILES): Fc1cccc(-c2ccc3nc(C(F)(F)F)cc(Cl)c3c2)c1

- IC50 (5'-nucleotidase [2]): 190 nM
Structure (SMILES): C/C(=N\NC(=O)c1ccncc1)N1N=C(c2ccc(F)cc2)CC1c1ccccc1 (stereo not given)

- IC50 (5'-nucleotidase [15]): 0.05 nM
- IC50 (5'-nucleotidase [16]): 0.051 nM
Structure (SMILES): O=P(O)(O)COC[C@H]1O[C@@H](n2ncc3c(N4CC5(CCc6ccccc65)C4)nc(Cl)nc32)[C@H](O)[C@@H]1O

- IC50 (5'-nucleotidase [5]): 160 nM
Structure (SMILES): Cc1ccc(-n2cc(C#N)c3cc4c(=O)oc5ccc(C)cc5c4nc32)cc1

- IC50 (5'-nucleotidase [11]): 860 nM
Structure (SMILES): O=P(O)(O)CP(=O)(O)C[C@@H](O)[C@H]1O[C@@H](n2cc(-c3ccc4ccccc4c3)nn2)[C@H](O)[C@@H]1O

The remaining lines, values behind:

Structure (SMILES): CCc1ccc2occ(/C=N/NS(=O)(=O)c3ccc(C)cc3)c(=O)c2c1
- IC50 (HeLa [4]): 86000 nM

Structure (SMILES): COc1cc(/C=N/N2C(=O)CNC2=S)cc(OC)c1OC
- inhibition at 100 µM (HeLa [7]): 4.31%
- cytotoxicity at 24 h, 100 µM [8]: 4.31%

Structure (SMILES): O=c1oc(/C=C/c2ccc(O)c(O)c2)cc2oc3cc(O)c(O)cc3c12 [PHELLIBAUMIN A]
- IC50 (5'-nucleotidase [9]): 17100 nM

Structure (SMILES): O=C1CNC(=S)N1/N=C/c1ccc(Br)s1
- inhibition at 100 µM (HeLa [7]): 4.31%
- cytotoxicity at 24 h, 100 µM [8]: 4.31%

Structure (SMILES): C=Cn1cc[n+](Cc2ccc(O)c(C=O)c2)c1
- IC50 (5'-nucleotidase [5]): 1140 nM
- IC50 (5'-nucleotidase [2]): 1930 nM

Structure (SMILES): Cc1ccc(S(=O)(=O)N/N=C/c2coc3ccc(Br)cc3c2=O)cc1
- IC50 (HeLa [4]): 30200 nM

Structure (SMILES): CC(=O)c1sc(N/N=C/c2ccc[nH]2)nc1C
- IC50 (5'-nucleotidase [5]): 320 nM

Structure (SMILES): CC(=O)c1sc(N/N=C/c2ccc(N(C)C)cc2)nc1C
- IC50 (5'-nucleotidase [5]): 320 nM

Structure (SMILES): Cc1cc2c(cc1O)c(=O)oc1cc(/C=C/c3ccc(O)c(O)c3)oc(=O)c12
- IC50 (5'-nucleotidase [9]): 35100 nM

Structure (SMILES): COc1cccc(COc2ccc(/C=N/N3C(=O)CNC3=S)cc2)c1
- IC50 (5'-nucleotidase [5]): 280 nM
- inhibition at 100 µM (HeLa [7]): 4.31%
- cytotoxicity at 24 h, 100 µM [8]: 4.31%

Structure (SMILES): COc1c2c(cc3c1C(=O)O[C@H]1[C@@H]3[C@H]3C(=C[C@@H]1O)CCN3C)OCO2
- inhibition (5'-nucleotidase [12]): 59%

Structure (SMILES): FC(F)(F)c1cc(Cl)c2cc(Br)ccc2n1
- IC50 (5'-nucleotidase [5]): 1720 nM

Structure (SMILES): O=S1(=O)NC(Nc2cccc3[nH]ncc23)=Nc2c1cc(Cl)c(F)c2O
- IC50 (5'-nucleotidase [9]): 15 nM

Structure (SMILES): O=C(N/N=C/c1cccnc1)c1ccccc1
- IC50 (5'-nucleotidase [2]): 210 nM

Structure (SMILES): CCCC(=O)c1c(O)c2c(c(CC3=C(O)C(C)(CC=C(C)C)C(=O)C(C(=O)C(C)C)=C3O)c1O)OC(C)(C)C=C2 (stereo not given)
- IC50 (Trichomonas vaginalis): 38000 nM

Structure (SMILES): O=c1c(O)c(-c2ccc(O)c(O)c2)oc2cc(O)cc(O)c12 [QUERCETIN]
- IC50 (5'-nucleotidase [5]): 45300 nM

Structure (SMILES): C=C[C@]1(C)C[C@@H](OC(=O)CSCCN(CC)CC)[C@]2(C)[C@H](C)CC[C@]3(CCC(=O)[C@H]32)[C@@H](C)[C@@H]1O
- inhibition (5'-nucleotidase [13]): 31.4%
- inhibition (5'-nucleotidase [14]): 53.9%

Structure (SMILES): O=C1c2cc3c(cc2[C@@H]2[C@H](O)[C@@H](O)C=C4CCN1[C@H]42)OCO3
- inhibition (5'-nucleotidase [12]): 88%

Structure (SMILES): COc1ccc(-c2ccc3nc(C(F)(F)F)cc(-c4ccc(OC)cc4)c3c2)cc1
- IC50 (5'-nucleotidase [5]): 1130 nM

Structure (SMILES): O=C(Nc1ccncc1)c1ccc(Cl)cc1
- IC50 (5'-nucleotidase [5]): 290 nM

Structure (SMILES): CC1=CC(=O)C2(C=C(c3cc4oc(=O)c5cc(O)c(O)cc5c4c(=O)o3)c3cc(O)c(O)cc32)O1 (stereo not given)
- IC50 (5'-nucleotidase [9]): 6720 nM

Structure (SMILES): Fc1cccc(-c2ccc3nc(C(F)(F)F)cc(-c4cccc(F)c4)c3c2)c1
- IC50 (5'-nucleotidase [5]): 1190 nM

Structure (SMILES): CCOC(=O)C1=C(C)NC(=S)NC1c1ccc(N(C)C)cc1 (stereo not given)
- inhibition (5'-nucleotidase [17]): 36%
- inhibition (5'-nucleotidase [18]): 48%
